Experimental data reported in patent US10259847B2, “Beta-hairpin peptidomimetics” (POLYPHOR AG, priority 2014, dated 2019).
Read-outs that look alike come from different tables or passages of the source. *1 amine or outer side, *2 acyl side, *3 side chain or, on linkers, in order; H or OH if unused. Where a SMILES comes first, the peptide text is derived from it. Bridges are numbered along the chain shown (N, C = ends). [ ]: non-standard residue; d: D form. Tle = CC(C)(C)[C@H](N)C(=O)O; dDab = NCC[C@@H](N)C(=O)O; hCys = N[C@@H](CCS)C(=O)O; Orn = NCCC[C@H](N)C(=O)O; Dab = NCC[C@H](N)C(=O)O; Dap = NC[C@H](N)C(=O)O; CO = O=C([*:1])[*:2]

Assays:
Format in all cases: cell-based
[1] = test system: human red blood cells (hRBC); assay: Hemolysis of human red blood cells
Experimental: Stock solutions were kept at +4° C., light protected.
Percent hemolysis was calculated as follows: (OD540peptide/OD540H2O)×100%.

[2] = test system: Acinetobacter baumannii DSM 30008
Outline: (§1)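 Peptide MICs were determined by NCCLS broth microdilution in cation-adjusted Mueller-Hinton II broth. Inoculum was about 10^6 CFU/mL, matched to 0.5 McFarland, with peptides in two-fold serial dilutions. The broth contained Polysorbate 80 at 0.002% final concentration.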

[3] = test system: Klebsiella pneumoniae ATCC 13883
Outline: as §1

[4] = test system: Escherichia coli ATCC 25922
Outline: as §1

[5] = Mueller-Hinton broth II, 0.002% P-80, 18-20 hours at 35° C.

SMILES	Hemolysis at 100 μg/mL ([1]; red cells of human, 1 h, 100)	Acinetobacter baumannii DSM 30008 MIC ([2]; DSM 30008)	Klebsiella pneumoniae ATCC 13883 MIC ([3]; ATCC 13883)	Escherichia coli ATCC 25922 MIC ([4]; ATCC 25922)	Hemolysis at 100 μg/mL ([1]; 100 μg/mL, 20% hRBC (v/v), 1 h at 37° C.)	Acinetobacter baumannii DSM 30008 MIC [2, 5]	Klebsiella pneumoniae ATCC 13883 MIC [3, 5]	Escherichia coli ATCC 25922 MIC [4, 5]
CC(C)C[C@@H]1NC(=O)[C@@H]2CCCN2C(=O)[C@H]2CCCN2C(=O)[C@H](CO)NC(=O)[C@@H]2CCC(=O)NCC[C@H](NC1=O)C(=O)N[C@@H](Cc1ccc(O)cc1)C(=O)N[C@@H](CCN)C(=O)N[C@@H](CCCN)C(=O)N[C@H](CCN)C(=O)N[C@@H](CCN)C(=O)N[C@@H](Cc1c[nH]c3ccccc13)C(=O)N[C@@H](CCN)C(=O)N[C@@H](C(C)(C)C)C(=O)N2 [Example 30, cyclo(-Leu-Dab-Tyr-Dab-Orn-^DDab-Dab-Trp-Dab-tBuGly-Glu-Ser-^DPro-Pro-)] (HELM PEPTIDE1{L.[Dab].Y.[Dab].[Orn].[NCC[C@@H](N[*:1])C(=O)[*:2]].[Dab].W.[Dab].[CC(C)(C)[C@H](N[*:1])C(=O)[*:2]].E.S.[dP].P}$PEPTIDE1,PEPTIDE1,2:R3-11:R3|PEPTIDE1,PEPTIDE1,1:R1-14:R2$$$V2.0)	0.5%	1 µg/mL	2 µg/mL	1 µg/mL				
CC(C)C[C@@H]1NC(=O)[C@@H]2CCCN2C(=O)[C@H]2CCCN2C(=O)[C@H](CO)NC(=O)[C@@H]2CC(=O)NCC[C@H](NC1=O)C(=O)N[C@@H](Cc1ccc(O)cc1)C(=O)N[C@@H](CCN)C(=O)N[C@@H](CCCN)C(=O)N[C@@H](CCN)C(=O)N[C@@H](CCN)C(=O)N[C@@H](Cc1c[nH]c3ccccc13)C(=O)N[C@@H](CCN)C(=O)N[C@@H](C(C)(C)C)C(=O)N2 [Example 32, cyclo(-Leu-Dab-Tyr-Dab-Orn-Dab-Dab-Trp-Dab-tBuGly-Asp-Ser-^DPro-Pro-)] (HELM PEPTIDE1{L.[Dab].Y.[Dab].[Orn].[Dab].[Dab].W.[Dab].[CC(C)(C)[C@H](N[*:1])C(=O)[*:2]].D.S.[dP].P}$PEPTIDE1,PEPTIDE1,2:R3-11:R3|PEPTIDE1,PEPTIDE1,1:R1-14:R2$$$V2.0)	1%	0.5 µg/mL	0.5 µg/mL	0.5 µg/mL				
CC(C)C[C@@H]1NC(=O)[C@@H]2CCCN2C(=O)[C@H]2CCCN2C(=O)[C@H](CO)NC(=O)[C@@H]2CC(=O)NCCCC[C@H](NC1=O)C(=O)N[C@@H](Cc1ccc(O)cc1)C(=O)N[C@@H](CCN)C(=O)N[C@@H](CCCN)C(=O)N[C@@H](CCN)C(=O)N[C@@H](CCN)C(=O)N[C@@H](Cc1c[nH]c3ccccc13)C(=O)N[C@@H](CCN)C(=O)N[C@@H](C(C)(C)C)C(=O)N2 [Example 33, cyclo(-Leu-Lys-Tyr-Dab-Orn-Dab-Dab-Trp-Dab-tBuGly-Asp-Ser-^DPro-Pro-)] (HELM PEPTIDE1{L.K.Y.[Dab].[Orn].[Dab].[Dab].W.[Dab].[CC(C)(C)[C@H](N[*:1])C(=O)[*:2]].D.S.[dP].P}$PEPTIDE1,PEPTIDE1,2:R3-11:R3|PEPTIDE1,PEPTIDE1,1:R1-14:R2$$$V2.0)	1%	1 µg/mL	4 µg/mL	1 µg/mL				
CC(C)C[C@@H]1NC(=O)[C@@H]2CCCN2C(=O)[C@H]2CCCN2C(=O)[C@H](CO)NC(=O)[C@@H]2CNC(=O)CC[C@H](NC1=O)C(=O)N[C@@H](Cc1ccc(O)cc1)C(=O)N[C@@H](CCN)C(=O)N[C@@H](CCCN)C(=O)N[C@H](CCN)C(=O)N[C@@H](CCN)C(=O)N[C@@H](Cc1c[nH]c3ccccc13)C(=O)N[C@@H](CCN)C(=O)N[C@@H](C(C)(C)C)C(=O)N2 [Example 34, cyclo(-Leu-Glu-Tyr-Dab-Orn-^DDab-Dab-Trp-Dab-tBuGly-Dap-Ser-^DPro-Pro-)] (cyclo(LEY[Dab][Orn][dDab][Dab]W[Dab][Tle][Dap]S[dP]P); lactam 2-11)	1%	1 µg/mL	0.5 µg/mL	0.5 µg/mL				
CC(C)C[C@@H]1NC(=O)[C@@H]2CCCN2C(=O)[C@H]2CCCN2C(=O)[C@H](CO)NC(=O)[C@@H]2CC(=O)NCCCC[C@H](NC1=O)C(=O)N[C@@H](Cc1ccc(O)cc1)C(=O)N[C@@H](CCN)C(=O)N[C@@H](CCCN)C(=O)N[C@H](CCN)C(=O)N[C@@H](CCN)C(=O)N[C@@H](Cc1c[nH]c3ccccc13)C(=O)N[C@@H](CCN)C(=O)N[C@@H](C(C)(C)C)C(=O)N2 [Example 35, cyclo(-Leu-Lys-Tyr-Dab-Orn-^DDab-Dab-Trp-Dab-tBuGly-Asp-Ser-^DPro-Pro-)] (HELM PEPTIDE1{L.K.Y.[Dab].[Orn].[NCC[C@@H](N[*:1])C(=O)[*:2]].[Dab].W.[Dab].[CC(C)(C)[C@H](N[*:1])C(=O)[*:2]].D.S.[dP].P}$PEPTIDE1,PEPTIDE1,2:R3-11:R3|PEPTIDE1,PEPTIDE1,1:R1-14:R2$$$V2.0)	0%	1 µg/mL	2 µg/mL	0.5 µg/mL				
CC(C)C[C@@H]1NC(=O)[C@@H]2CCCN2C(=O)[C@H]2CCCN2C(=O)[C@H](CO)NC(=O)[C@@H]2CC(=O)NC[C@H](NC1=O)C(=O)N[C@@H](Cc1ccc(O)cc1)C(=O)N[C@@H](CCN)C(=O)N[C@@H](CCCN)C(=O)N[C@H](CCN)C(=O)N[C@@H](CCN)C(=O)N[C@@H](Cc1c[nH]c3ccccc13)C(=O)N[C@@H](CCN)C(=O)N[C@@H](C(C)(C)C)C(=O)N2 [Example 36, cyclo(-Leu-Dap-Tyr-Dab-Orn-^DDab-Dab-Trp-Dab-tBuGly-Asp-Ser-^DPro-Pro-)] (cyclo(L[Dap]Y[Dab][Orn][dDab][Dab]W[Dab][Tle]DS[dP]P); lactam 2-11)	4.5%	1.5 µg/mL	0.125 µg/mL	0.5 µg/mL				
CC(C)C[C@@H]1NC(=O)[C@@H]2CCCN2C(=O)[C@H]2CCCN2C(=O)[C@H](CO)NC(=O)[C@@H]2CC(=O)NCC[C@H](NC1=O)C(=O)N[C@@H](Cc1ccc(O)cc1)C(=O)N[C@@H](CCN)C(=O)N[C@@H](CCCN)C(=O)N[C@H](CCN)C(=O)N[C@@H](CCN)C(=O)N[C@@H](Cc1c[nH]c3ccccc13)C(=O)N[C@@H](CCN)C(=O)N[C@@H](C(C)(C)C)C(=O)N2 [Example 37, cyclo(-Leu-Dab-Tyr-Dab-Orn-^DDab-Dab-Trp-Dab-tBuGly-Asp-Ser-^DPro-Pro-)] (HELM PEPTIDE1{L.[Dab].Y.[Dab].[Orn].[NCC[C@@H](N[*:1])C(=O)[*:2]].[Dab].W.[Dab].[CC(C)(C)[C@H](N[*:1])C(=O)[*:2]].D.S.[dP].P}$PEPTIDE1,PEPTIDE1,2:R3-11:R3|PEPTIDE1,PEPTIDE1,1:R1-14:R2$$$V2.0)	2.5%	0.5 µg/mL	0.5 µg/mL	0.5 µg/mL				
CC(C)[C@@H]1NC(=O)[C@@H]2CCCN2C(=O)[C@H]2CCCN2C(=O)[C@H](CO)NC(=O)[C@H]2CSSC[C@@H](NC1=O)C(=O)N[C@@H](Cc1ccc(O)cc1)C(=O)N[C@@H](CCN)C(=O)N[C@@H](CN)C(=O)N[C@H](CCN)C(=O)N[C@@H](CCN)C(=O)N[C@@H](Cc1c[nH]c3ccccc13)C(=O)N[C@@H](CCN)C(=O)N[C@@H](C(C)(C)C)C(=O)N2 [Example 38, cyclo(-Val-^DCys-Tyr-Dab-Dap-^DDab-Dab-Trp-Dab-tBuGly-^DCys-Ser-^DPro-Pro-)] (cyclo(V[dC]Y[Dab][Dap][dDab][Dab]W[Dab][Tle][dC]S[dP]P); disulfide 2-11)					2%	2 µg/mL	2 µg/mL	4 µg/mL
CC(C)[C@@H]1NC(=O)[C@@H]2CCCN2C(=O)[C@H]2CCCN2C(=O)[C@H](CO)NC(=O)[C@@H]2CSSCC[C@H](NC1=O)C(=O)N[C@@H](Cc1ccc(O)cc1)C(=O)N[C@@H](CCN)C(=O)N[C@@H](CN)C(=O)N[C@H](CCN)C(=O)N[C@@H](CCN)C(=O)N[C@@H](Cc1c[nH]c3ccccc13)C(=O)N[C@@H](CCN)C(=O)N[C@@H](C(C)(C)C)C(=O)N2 [Example 39, cyclo(-Val-Hcy-Tyr-Dab-Dap-^DDab-Dab-Trp-Dab-tBuGly-Cys-Ser-^DPro-Pro-)] (cyclo(V[hCys]Y[Dab][Dap][dDab][Dab]W[Dab][Tle]CS[dP]P); disulfide 2-11)	2%	2 µg/mL	1 µg/mL	1 µg/mL				
CC(C)[C@@H]1NC(=O)[C@@H]2CCCN2C(=O)[C@H]2CCCN2C(=O)[C@H](CO)NC(=O)[C@@H]2CNC(=O)NC[C@H](NC1=O)C(=O)N[C@@H](Cc1ccc(O)cc1)C(=O)N[C@@H](CCN)C(=O)N[C@@H](CN)C(=O)N[C@H](CCN)C(=O)N[C@@H](CCN)C(=O)N[C@@H](Cc1c[nH]c3ccccc13)C(=O)N[C@@H](CCN)C(=O)N[C@@H](C(C)(C)C)C(=O)N2 [Example 40, cyclo(-Val-Dap-Tyr-Dab-Dap-^DDab-Dab-Trp-Dab-tBuGly-Dap-Ser-^DPro-Pro-)] (cyclo(V[Dap]Y[Dab][Dap][dDab][Dab]W[Dab][Tle][Dap]S[dP]P); linker 2-11 via CO)	2%	1 µg/mL	0.25 µg/mL	0.25 µg/mL				
